Measurements reported in patent publication US9090600B2, “Fungicidal 4-substituted-3-{phenyl[(heterocyclylmethoxy)imino]methyl}-1,2,4-oxadizol-5(4H)-one derivatives” (BAYER INTELLECTUAL PROPERTY GMBH, priority 2011, dated 2015).
Marks after values point to notes of the source that are not given here.

Conditions: pH 2.7

Row | SMILES | LogP
1 | Cn1c(/C(=N\OCc2cccc(NC(=O)OCCCC3CCCCC3)n2)c2ccccc2)noc1=O [compound 523] | 5.71 [a]
2 | CCCc1ccc(OC(=O)Nc2cccc(CO/N=C(/c3ccccc3)c3noc(=O)n3C)n2)cc1 [compound 467] | 4.74 [a]
3 | Cn1c(C(=NOCc2cccc(NC(=O)OCc3cccc(F)c3)n2)c2ccccc2)noc1=O [compound 501] | 4.01 [a]
4 | Cn1c(/C(=N\OCc2cccc(NC(=O)OCCCC3CC3)n2)c2ccccc2)noc1=O [compound 549] | 4.37 [a]
5 | Cn1c(C(=NOCc2cccc(NC(=O)OCCCCCCCl)n2)c2ccccc2)noc1=O [compound 486] | 4.49 [a]
6 | Cc1cccc(C(=NOCc2cccc(N)n2)c2noc(=O)[nH]2)c1 (mixture of isomers) [Example 121] | 1.47 [a]
7 | CCC1(C(=O)Nc2cccc(CO/N=C(/c3ccccc3)c3noc(=O)n3C)n2)C(C)C1(Cl)Cl (stereo not drawn) [Example 189] | 4.35 [a]
8 | COC(=O)C(C)(C)COC(=O)Nc1cccc(CON=C(c2ccccc2)c2noc(=O)n2C)n1 [compound 489] | 3.65 [a]
9 | Cn1c(/C(=N\OCc2cccc(NC(=O)OCc3cccc(C#N)c3)n2)c2ccccc2)noc1=O [compound 477] | 3.65 [a]
10 | Cn1c(C(=NOCc2cccc(NC(=O)OCC(F)(F)F)n2)c2ccccc2)noc1=O [compound 500] | 3.57 [a]
11 | Cn1c(/C(=N\OCc2csc(NC(=O)COc3ccc(F)cc3)n2)c2ccccc2)noc1=O [Example 38] | 3.53 [a]
12 | CCCCC(C)(C)C(=O)Nc1nc(CO/N=C(/c2ccccc2)c2noc(=O)n2C)cs1 [Example 160] | 4.48 [a]
13 | CCOCCCOC(=O)Nc1cccc(CO/N=C(/c2ccccc2)c2noc(=O)n2C)n1 [compound 431] | 3.44 [a]
14 | CC(C)(C)OC(=O)Nc1cccc(CO/N=C(/c2ccc(F)cc2)c2noc(=O)[nH]2)n1 [Example 214] | 3.78 [a]
15 | CC(Oc1cccc(Cl)c1)C(=O)Nc1cccc(CO/N=C(/c2ccccc2)c2noc(=O)n2C)n1 (stereo not drawn) [Example 64] | 4.38 [a]
16 | CCc1ccc(OC(=O)Nc2cccc(CO/N=C(/c3ccccc3)c3noc(=O)n3C)n2)cc1 [compound 478] | 4.39 [a]
17 | Nc1cccc(CON=C(c2ccccc2)c2noc(=O)[nH]2)n1 (mixture of isomers) [Example 96] | 1.2 [a]
18 | Cn1c(/C(=N\OCc2cccc(NC(=O)OCC3CCCCC3)n2)c2ccccc2)noc1=O [compound 541] | 4.88 [a]
19 | Cn1c(/C(=N\OCc2cccc(NC(=O)OCC[Si](C)(C)C)n2)c2ccccc2)noc1=O [compound 542] | 4.88 [a]
20 | CC(C)c1ccc(OC(=O)Nc2cccc(CON=C(c3ccccc3)c3noc(=O)n3C)n2)cc1 [compound 492] | 4.67 [a]
21 | C=C(C)COC(=O)Nc1cccc(CON=C(c2ccccc2)c2noc(=O)n2C)n1 [compound 504] | 3.73 [a]
22 | Cn1c(/C(=N\OCc2cccc(NC(=O)OCCF)n2)c2ccccc2)noc1=O [compound 551] | 2.96 [a]
23 | Cn1c(/C(=N/OCc2cccc(N)n2)c2cccc(F)c2F)noc1=O [Example 416] | 1.26 [a]
24 | COc1ccc(C(=O)Nc2cccc(CO/N=C(/c3ccccc3)c3noc(=O)n3C)n2)cc1 [Example 217] | 3.53 [a]
25 | Cc1ccc(OC(=O)Nc2cccc(CO/N=C(/c3ccccc3)c3noc(=O)n3C)n2)cc1 [compound 425] | 4.03 [a]

Row | SMILES | LogP
26 | C=C(C)OC(=O)Nc1cccc(CO/N=C(/c2ccccc2)c2noc(=O)n2C)n1 [compound 466] | 3.37 [a]
27 | Cn1c(/C(=N\OCc2cccc(NC(=O)OCCC3CCOCC3)n2)c2ccccc2)noc1=O [compound 537] | 3.44 [a]
28 | CC(C)=CCCOC(=O)Nc1cccc(CO/N=C(/c2ccccc2)c2noc(=O)n2C)n1 [compound 448] | 4.39 [a]
29 | CC#CCOC(=O)Nc1cccc(CO/N=C(/c2ccccc2)c2noc(=O)n2C)n1 [compound 414] | 3.42 [a]
30 | C#CCCOC(=O)Nc1cccc(CON=C(C(N)=NO)c2ccccc2)n1 (mixture of isomers) [Example V-1] | 2.1 [a]
31 | CCCC#CCCOC(=O)Nc1cccc(CON=C(c2ccccc2)c2noc(=O)n2C)n1 [compound 511] | 4.31 [a]
32 | Cn1c(/C(=N\OCc2cccc(NC(=O)OCC3CCOC3)n2)c2ccccc2)noc1=O (stereo not drawn) [compound 524] | 2.98 [a]
33 | Cc1ccccc1OC(=O)Nc1cccc(CO/N=C(/c2ccccc2)c2noc(=O)n2C)n1 [compound 521] | 3.96 [a]
34 | COc1ccc(OC(=O)Nc2cccc(CO/N=C(/c3ccccc3)c3noc(=O)n3C)n2)cc1 [compound 532] | 3.69 [a]
35 | COc1ccc(COC(=O)Nc2cccc(CO/N=C(/c3ccccc3)c3noc(=O)n3C)n2)cc1 [compound 450] | 3.92 [a]
36 | COc1cccc(C(=NOCc2cccc(NC(=O)c3cccc(F)c3)n2)c2noc(=O)n2C)c1 [Example 399] | 3.72 [a]
37 | Cn1c(/C(=N\OCc2cccc(NC(=O)OCC3CC3)n2)c2ccccc2)noc1=O [compound 473] | 3.64 [a]
38 | COc1ccccc1OCC(=O)Nc1cccc(CO/N=C(/c2ccccc2)c2noc(=O)n2C)n1 [Example 31] | 3.8 [a]
39 | Cn1c(/C(=N\OCc2cccc(NC(=O)OC(C)(C)C)n2)c2ccccc2F)noc1=O [Example 97] | 3.92 [a]
40 | Cn1c(/C(=N\OCc2cccc(NC(=O)OCc3c(Cl)cccc3Cl)n2)c2ccccc2)noc1=O [compound 428] | 4.56 [a]
41 | Cc1cccc(OC(C)C(=O)Nc2cccc(CO/N=C(/c3ccccc3)c3noc(=O)n3C)n2)c1 (stereo not drawn) [Example 128] | 4.35 [a]
42 | Cn1c(C(=NOCc2cccc(N)n2)c2ccc(F)cc2)noc1=O [Example 259] | 1.41 [a]
43 | COc1ccccc1OC(C)C(=O)Nc1cccc(CO/N=C(/c2ccccc2)c2noc(=O)n2C)n1 (stereo not drawn) [Example 115] | 4.15 [a]
44 | CC(=O)OCCCCOC(=O)Nc1cccc(CO/N=C(/c2ccccc2)c2noc(=O)n2C)n1 [compound 514] | 3.35 [a]
45 | CC(Cc1ccccc1)OC(=O)Nc1cccc(CO/N=C(/c2ccccc2)c2noc(=O)n2C)n1 (stereo not drawn) [Example 60] | 4.49 [a]
46 | CC=CCCCOC(=O)Nc1cccc(CON=C(c2ccccc2)c2noc(=O)n2C)n1 [compound 509] | 4.44 [a]
47 | CC(=O)CCCOC(=O)Nc1cccc(CO/N=C(/c2ccccc2)c2noc(=O)n2C)n1 [compound 446] | 2.96 [a]
48 | CC(Oc1ccccc1Br)C(=O)Nc1cccc(CO/N=C(/c2ccccc2)c2noc(=O)n2C)n1 (stereo not drawn) [Example 275] | 4.53 [a]
49 | CC#CCCOC(=O)Nc1cccc(CO/N=C(/c2ccccc2)c2noc(=O)n2C)n1 [compound 548] | 3.58 [a]
50 | CC/C=C/CCOC(=O)Nc1cccc(CO/N=C(/c2ccccc2)c2noc(=O)n2C)n1 [compound 522] | 4.46 [a]

Row | SMILES | LogP
51 | Cc1ccc(/C(=N/OCc2csc(NC(=O)C3COc4ccccc4O3)n2)c2noc(=O)n2C)cc1 (racemic) [Example 392] | 3.9 [a]
52 | CCC1(COC(=O)Nc2cccc(CO/N=C(/c3ccccc3)c3noc(=O)n3C)n2)COC1 [compound 520] | 3.27 [a]
53 | Cn1c(/C(=N\OCc2csc(N)n2)c2ccccc2Cl)noc1=O [Example 90] | 1.72 [a]
54 | CCCCCOC(=O)Nc1nc(CO/N=C(/c2ccc(C)cc2)c2noc(=O)n2C)cs1 [Example 41] | 4.41 [a]
55 | CC(OC(=O)Nc1cccc(CO/N=C(/c2ccccc2)c2noc(=O)n2C)n1)C(C)(C)C (stereo not drawn) [Example 305] | 4.56 [a]
56 | CCCCCCN(C(=O)OC(C)(C)C)c1cccc(CO/N=C(/c2cccc(C)c2)c2noc(=O)n2C)n1 [compound 299] | 6.57 [a]
57 | Cn1c(/C(=N\OCc2cccc(NC(=O)COc3cccc(Br)c3)n2)c2ccccc2)noc1=O [Example 382] | 4.2 [a]
58 | CC(C)CC(C)OC(=O)Nc1cccc(CO/N=C(/c2ccccc2)c2noc(=O)n2C)n1 (stereo not drawn) [Example 273] | 4.68 [a]
59 | Cn1c(/C(=N\OCc2cccc(NC(=O)OCCCCl)n2)c2ccccc2)noc1=O [compound 544] | 3.6 [a]
60 | Cc1cc(Cl)ccc1OCCCC(=O)Nc1cccc(CO/N=C(/c2ccccc2)c2noc(=O)n2C)n1 [Example 277] | 4.73 [a]
61 | CCCCOC(=O)Nc1cccc(CO/N=C(/c2ccccc2F)c2noc(=O)n2C)n1 [Example 552] | 3.92 [a]
62 | Cc1ccc(C(=NOCc2csc(N)n2)C(N)=NO)cc1 (mixture of isomers) [Example V-15] | 0.89 [a]
63 | Cn1c(/C(=N\OCc2cccc(NC(=O)OCCCl)n2)c2ccccc2)noc1=O [compound 518] | 3.29 [a]
64 | Cn1c(/C(=N\OCc2cccc(NC(=O)OCCc3cccc(Br)c3)n2)c2ccccc2)noc1=O [Example 49] | 4.61 [a]
65 | Cc1ccccc1OCC(=O)Nc1nc(CO/N=C(/c2ccccc2)c2noc(=O)n2C)cs1 [Example 213] | 3.85 [a]
66 | CC(OC(=O)Nc1cccc(CON=C(c2ccccc2)c2noc(=O)n2C)n1)C1CCCC1 (stereo not drawn) [compound 502] | 4.82 [a]
67 | Cn1c(/C(=N\OCc2cccc(NC(=O)OCCc3ccccc3Br)n2)c2ccccc2)noc1=O [Example 298] | 4.66 [a]
68 | Cc1ccc(C2(C(=O)Nc3cccc(CO/N=C(/c4ccccc4)c4noc(=O)n4C)n3)CC2)cc1 [Example 397] | 4.76 [a]
69 | CC(C)CCCOC(=O)Nc1cccc(CO/N=C(/c2ccccc2)c2noc(=O)n2C)n1 [Example 45] | 4.81 [a]
70 | Cn1c(/C(=N\OCc2cccc(NC(=O)OCc3ccc(C#N)cc3)n2)c2ccccc2)noc1=O [compound 432] | 3.61 [a]
71 | Cn1c(C(=NOCc2cccc(NC(=O)OCc3ccccc3F)n2)c2ccccc2)noc1=O [compound 495] | 4.01 [a]
72 | CC(Oc1ccccc1)C(=O)Nc1nc(CON=C(c2ccccc2Cl)c2noc(=O)n2C)cs1 (stereo not drawn) [Example 493] | 3.81 [a]
73 | Cc1cccc(COC(=O)Nc2cccc(CO/N=C(/c3ccccc3)c3noc(=O)n3C)n2)c1 [compound 458] | 4.34 [a]
74 | CC(OCc1ccccc1)C(=O)Nc1nc(CO/N=C(/c2ccccc2)c2noc(=O)n2C)cs1 (stereo not drawn) [Example 126] | 3.85 [a]
75 | Cn1c(C(=NOCc2cccc(NC(=O)COc3ccccc3Br)n2)c2ccccc2)noc1=O [Example 269] | 4.25 [a]
